According to patent publication US10828335B2, “Production of midbrain dopaminergic neurons and methods for the use thereof” (FUJIFILM Cellular Dynamics, Inc., priority 2014, dated 2020):

Columns and labels:
Format in all cases: cell-based, human
[1] = test system: cells differentiated from iPS cell line MAP2 Neo #2; experiment: Flow cytometry of cells made with the No FGF8 protocol with drug selection (+G418) (Example 2); settings: +G418, 7 days post-thaw
Description: (§1) On Day 19, cells were dissociated using Accutase (45 min) and were re-plated at 3.1×10^5 cells/cm^2 onto flasks pre-coated with poly-L-ornithine and laminin (PLO/laminin) in Maturation Medium containing 2.5 μM blebbistatin. Cells were fed with Maturation Medium on Days 20, 22 and 24. To compare unselected cells to those that had undergone drug selection, in some experiments a side-arm condition of cells were fed on Day 22 and 24 with Maturation Medium containing 100 μg/mL G418 to select against cells not expressing the neomycin resistance gene under the control of a pan-neuronal MAP2 promoter.
On Day 26, cells were dissociated using Accutase (45 min) and cryopreserved in CryoStor CS10 medium at 1.25×10^7 cells/mL using a controlled rate freezer.
In further studies the purity of mature midbrain DA neurons was assessed by flow cytometry of cells generated using a “no FGF8” protocol alone compared to cells obtained using a drug selection method. When the cells are cryopreserved on day 26 with no drug selection, they are 99% FoxA2^+, 40% TH^+, and 77% Map2^+. […] For comparison, cells made using the same protocol but with drug selection (+G418), the final purity at 7 days post-thaw was 96% FoxA2^+, 63% TH^+, and 98% Map2^+.

[2] = test system: cells differentiated from iPS cell line MAP2 Neo #2; experiment: Flow cytometry of midbrain DA neuron differentiation with G418 drug selection (Example 1); settings: day 38; 100 μg/mL G418 selection; same protocol without drug selection gave 39% neurons
Description: as §1, with “24,” for “19,”, “Day 25. On Day 27” for “Days 20, 22”, “Day 29,” for “24. To compare unselected cells to those that had undergone drug selection, in some experiments a side-arm condition of”, “fed” for “fed on Day 22 and 24”
On Day 31, cells were dissociated using Accutase (45 min) and were re-plated at 3.1×10^5 cells/cm^2 onto PLO/ laminin flasks in Maturation Medium containing 100 μg/mL G418 and 2.5 μM blebbistatin. On Day 32, Day 34 and Day 36, cells were fed with Maturation Medium. On Day 38, cells were dissociated using Accutase (45 min) and cryopreserved in CryoStor CS10 medium at 1.25×10^7 cells/mL using a controlled rate freezer.
The effect of drug selection on gene expression in cell populations was also analyzed. […] This iPS cell lines (MAP2 Neo #2 (01279.107.00402)) was generated using zinc finger nuclease-mediated homologous recombination at the AAVS1 safe harbor site, as detailed above. The midbrain DA neuron differentiation protocol performed without drug selection results in a population of cells that is 39% neurons (Map2^+/Nestin^−) on day 38. […]

MAP2 Neo #2 iPS cells = experiment: Midbrain specification during DA progenitor induction with a MEK inhibitor; settings: 1 μM PD0325901 added from Day 2 of differentiation
Description: Day 1 medium was composed of DMEM/F12 with B27 Supplement and containing a cocktail of small molecule inhibitors and activators (“Induction Cocktail”): 200 nM LDN-193189, […] SB431542, 2 μM purmorphamine, 100 ng/mL Shh C25II and 1.25 μM CHIR 99021. […] On Day 3 and Day 4, the cells were fed with DMEM/F12 with B27 (−Vitamin A)+Induction Cocktail+1 μM PD0325901.

Row | Compound | TH+ cells, final purity ([1]; without selection 55%) [%] | Map2+ cells, final purity ([1]; without selection 90%) [%] | FoxA2+ cells, final purity ([1]; without selection 93%) [%] | neurons (Map2+/Nestin-) in the cell population [2] [%] | midbrain specification (MAP2 Neo #2 iPS cells)
1 | CN[C@@H]1[C@@H](O)[C@@H](O[C@@H]2[C@@H](O)[C@H](O[C@H]3O[C@H]([C@@H](C)O)[C@@H](O)[C@H](O)[C@H]3N)[C@@H](N)C[C@H]2N)OC[C@]1(C)O [G418] | 63 | 98 | 96 | 95 | 
2 | O=C(NOC[C@H](O)CO)c1ccc(F)c(F)c1Nc1ccc(I)cc1F [PD0325901] |  |  |  |  | induces faster and more efficient midbrain specification
